Laboratory results: patent US20050137220A1 (Pharmacia Corporation, priority 2003, published 2005)
Several values for one entry are separate records, joined by “and”; a condition that tells them apart may be missing. Identical values can stand only once. Counter-ions that a name gives are not always drawn.

Target: MK-2 (Homo sapiens, UniProt P49137)
Assay: Determination of MK-2 IC50 (phosphorylation of HSP-peptide, anion exchange resin capture assay)
Type: biochemical
Details: additional values are replicate IC50 experiments; mixture of stereoisomers implied unless otherwise noted; read-out: MK-2 Avg. IC50

MK-2, sequence (P49137 whole entry, species assumed): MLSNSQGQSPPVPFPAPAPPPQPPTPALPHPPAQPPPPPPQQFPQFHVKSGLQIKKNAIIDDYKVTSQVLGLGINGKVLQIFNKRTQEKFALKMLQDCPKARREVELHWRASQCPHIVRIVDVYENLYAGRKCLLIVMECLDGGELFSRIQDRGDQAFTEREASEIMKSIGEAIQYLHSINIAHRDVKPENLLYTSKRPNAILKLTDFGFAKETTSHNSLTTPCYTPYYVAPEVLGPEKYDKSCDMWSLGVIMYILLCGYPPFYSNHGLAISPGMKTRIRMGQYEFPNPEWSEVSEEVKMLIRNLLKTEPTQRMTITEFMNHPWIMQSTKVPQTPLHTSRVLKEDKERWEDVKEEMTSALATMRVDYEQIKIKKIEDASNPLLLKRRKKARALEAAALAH

IC50	Compound
104 µM	COc1ccc2[nH]c3c(c2c1)CCC3=NO [Example 132, 7-methoxy-1,4-dihydrocyclopenta[b]indol-3(2H)-one oxime]
89.6 µM	O=C1NCCc2c1[nH]c1ccc(Cl)cc21 [Example 125, 1H-Pyrido[3,4-b]indol-1-one, 6-chloro-2,3,4,9-tetrahydro- or 6-chloro-2,3,4,9-tetrahydro-1H-beta-carbolin-1-one]
> 200 µM	COc1ccc2[nH]c3c(c2c1)CCNC3CO (stereo not drawn) [Example 221, (6-methoxy-2,3,4,9-tetrahydro-1H-beta-carbolin-1-yl)methanol]
> 200 µM	CCOC(=O)C1Cc2c([nH]c3ccc(OC)cc23)C(C(=O)O)N1 (stereo not drawn) [Example 177, 3-(ethoxycarbonyl)-6-methoxy-2,3,4,9-tetrahydro-1H-beta-carboline-1-carboxylic acid]
> 200 µM	COc1ccc2c3c([nH]c2c1)C(=O)NCC3 [Example 264, 7-methoxy-2,3,4,9-tetrahydro-1H-beta-carbolin-1-one]
136 µM	COC(=O)CCC1Cc2c([nH]c3ccc(OC)cc23)C(=O)N1 (stereo not drawn) [Example 147, methyl 3-(6-methoxy-1-oxo-2,3,4,9-tetrahydro-1H-beta-carbolin-3-yl)propanoate]
155 µM	COc1ccc2[nH]c3c(c2c1)CCNS3(=O)=O [Example 153, 6-methoxy-2,3,4,9-tetrahydro[1,2]thiazino[6,5-b]indole 1,1-dioxide]
> 200 µM	COc1ccc2[nH]c3c(c2c1)CC(C(F)(F)F)NC3C(=O)O (stereo not drawn) [Example 205, 6-methoxy-3-(trifluoromethyl)-2,3,4,9-tetrahydro-1H-beta-carboline-1-carboxylic acid]
> 200 µM	CCCC1Cc2c([nH]c3ccc(OC)cc23)C(C(=O)O)N1 (stereo not drawn) [Example 190, 6-methoxy-3-propyl-2,3,4,9-tetrahydro-1H-beta-carboline-1-carboxylic acid]
75.2 µM	O=C1NCCc2c1[nH]c1ccc(I)cc21 [Example 120, 6-iodo-2,3,4,9-tetrahydro-1H-beta-carbolin-1-one]
95.1 µM and 98.2 µM	C=CCN1CCc2c([nH]c3ccc(OC)cc23)C1C(=O)O (stereo not drawn) [Example 128, potassium 2-allyl-6-methoxy-2,3,4,9-tetrahydro-1H-beta-carboline-1-carboxylate]
> 200 µM	COc1ccc2[nH]c3c(c2c1)CCNC3Cc1nnn[nH]1 (stereo not drawn) [Example 166, 6-methoxy-1-(1H-tetraazol-5-ylmethyl)-2,3,49-tetrahydro-1H-beta-carboline hydrochloride hydrate]
> 200 µM	COC(=O)C1c2[nH]c3ccc(OC)cc3c2CCN1C(=O)C(F)(F)F (stereo not drawn) [Example 207, methyl 6-methoxy-2-(trifluoroacetyl)-2,3,4,9-tetrahydro-1H-beta-carboline-1-carboxylate]
> 200 µM	O=C(O)c1ccc2[nH]c3c(c2c1)CCNC3=O [Example 271, 1-oxo-2,3,4,9-tetrahydro-1H-beta-carboline-6-carboxylic acid]
> 200 µM	COc1ccc2[nH]c3c(c2c1)CCNC3CC#N (stereo not drawn) [Example 231, (6-methoxy-2,3,4,9-tetrahydro-1H-beta-carbolin-1-yl)acetonitrile]
> 200 µM	COC(=O)C1NC(CO)Cc2c1[nH]c1ccc(OC)cc21 (stereo not drawn) [Example 184, methyl 3-(hydroxymethyl)-6-methoxy-2,3,4,9-tetrahydro-1H-beta-carboline-1-carboxylate]
> 200 µM	COc1ccc2[nH]c3c(c2c1)C(Cc1ccco1)CNC3C(=O)O (stereo not drawn) [Example 222, 4-(2-furylmethyl)-6-methoxy-2,3,4,9-tetrahydro-1H-beta-carboline-1-carboxylic acid trifluoroacetate]
170 µM	COc1ccc2[nH]c3c(c2c1)CCN(C(C)C)C3C(=O)O (stereo not drawn) [Example 157, sodium 2-isopropyl-6-methoxy-2,3,4,9-tetrahydro-1H-beta-carboline-1-carboxylate]

The next lines start with the compound.

Compound	IC50
NNC(=O)c1ccc2[nH]c3c(c2c1)CCNC3C(=O)O (stereo not drawn) [Example 107, 6-(hydrazinocarbonyl)-2,3,4,9-tetrahydro-1H-beta-carboline-1-carboxylic acid]	48.6 µM
COc1cc2[nH]c3c(c2cc1OC)CCNC3C(=O)O (stereo not drawn) [Example 201, 6,7-dimethoxy-2,3,4,9-tetrahydro-1H-beta-carboline-1-carboxylic acid trifluoroacetate]	> 200 µM
O=C(O)C1NCCc2c1[nH]c1cc(F)ccc21 (stereo not drawn) [Example 214, 7-fluoro-2,3,4,9-tetrahydro-1H-beta-carboline-1-carboxylic acid hydrochloride]	> 200 µM
COc1ccc2[nH]c3c(c2c1)CCNC3C(F)(F)F (stereo not drawn) [Example 224, 6-methoxy-1-(trifluoromethyl)-2,3,4,9-tetrahydro-1H-beta-carboline]	> 200 µM
COc1ccc2[nH]c3c(c2c1)C(c1ccccc1)CNC3C(=O)O (stereo not drawn) [Example 233, 6-methoxy-4-phenyl-2,3,4,9-tetrahydro-1H-beta-carboline-1-carboxylic acid]	> 200 µM
COc1ccc([N+](=O)[O-])c2c3c(n(C)c12)C(=O)NCC3 [Example 259, 8-methoxy-9-methyl-5-nitro-2,3,4,9-tetrahydro-1H-beta-carbolin-1-one]	> 200 µM
O=C(O)C1NCCc2c1[nH]c1ccc(OCc3cccnc3)cc21 (stereo not drawn) [Example 102, 6-(pyridin-3-ylmethoxy)-2,3,4,9-tetrahydro-1H-beta-carboline-1-carboxylic acid hydrochloride]	42.6 µM
Cc1cccc2c3c([nH]c12)C(C(=O)O)NCC3 (stereo not drawn) [Example 215, 8-methyl-2,3,4,9-tetrahydro-1H-beta-carboline-1-carboxylic acid hydrochloride]	> 200 µM
COc1ccc2c3c([nH]c2c1)C(Cc1ccc(OC)c(OC)c1OC)(C(=O)O)NCC3 (stereo not drawn) [Example 203, 7-methoxy-1-[(2,3,4-trimethoxyphenyl)methyl]-2,3,4,9-tetrahydro-1H-beta-carboline-1-carboxylic acid, acetate (1:1)]	> 200 µM
O/N=C1\CCCc2c1[nH]c1ccccc21 [Example 109, 2,3,4,9-tetrahydro-1H-carbazol-1-one oxime]	49.9 µM
O=C(O)C1NCCc2c1[nH]c1ccc(OCc3ccccn3)cc21 (stereo not drawn) [Example 101, 6-(pyridin-2-ylmethoxy)-2,3,4,9-tetrahydro-1H-beta-carboline-1-carboxylic acid hydrochloride]	39.9 µM
COC(=O)c1cccc2[nH]c3c(c12)CCNC3C(=O)O (stereo not drawn) [Example 238, 5-(methoxycarbonyl)-2,3,4,9-tetrahydro-1H-beta-carbolin-1-carboxylic acid hydrate]	> 200 µM
CN1CCc2c(n(-c3ccccc3)c3ccccc23)C1=O [Example 257, 2-methyl-9-phenyl-2,3,4,9-tetrahydro-1H-beta-carbolin-1-one]	> 200 µM
COC(=O)C1(C)NCCc2c1[nH]c1ccccc21 (stereo not drawn) [Example 235, methyl 1-methyl-2,3,4,9-tetrahydro-1H-beta-carboline-1-carboxylate]	> 200 µM
O=C(O)C1(Cc2ccc3c(c2)OCO3)NCCc2c1[nH]c1ccccc21 (stereo not drawn) [Example 204, 1-[(benzodioxolan-5-yl)methyl]-2,3,4,9-tetrahydro-1H-beta-carboline-1-carboxylic acid]	> 200 µM
O=C(O)C1NCCc2c1[nH]c1ccc(OCCCc3ccccc3)cc21 (stereo not drawn) [Example 139, 6-(3-phenylpropoxy)-2,3,49-tetrahydro-1H-beta-carboline-1-carboxylic acid]	117 µM
O=C1NCCc2c1[nH]c1cccc(C(=O)O)c21 [Example 250, 1-oxo-2,3,4,9-tetrahydro-1H-beta-carboline-5-carboxylic acid]	> 200 µM
COc1ccc2[nH]c3c(c2c1)CCNC3(CCC(=O)O)C(=O)O (stereo not drawn) [Example 178, 1-(2-carboxyethyl)-6-methoxy-2,3,4,9-tetrahydro-1H-beta-carboline-1-carboxylic acid]	> 200 µM
COc1ccc2[nH]c3c(c2c1)C(Cc1ccc(CO)cc1)CNC3C(=O)O (stereo not drawn) [Example 114, 4-[4-(hydroxymethyl)benzyl]-6-methoxy-2,3,4,9-tetrahydro-1H-beta-carboline-1-carboxylic acid]	61.4 µM
COc1ccc2[nH]c3c(c2c1)CCN(Cc1ccc(C(F)(F)F)cc1)C3C(=O)O (stereo not drawn) [Example 141, 6-methoxy-2-[4-(trifluoromethyl)benzyl]-2,3,4,9-tetrahydro-1H-beta-carboline-1-carboxylic acid]	119 µM
COc1ccc2[nH]c3c(c2c1C)CCNC3C(=O)O (stereo not drawn) [Example 183, 6-methoxy-5-methyl-2,3,4,9-tetrahydro-1H-beta-carboline-1-carboxylic acid hydrochloride]	> 200 µM
COC(=O)c1cccc2[nH]c3c(c12)CCNC3C(=O)O (stereo not drawn) [Example 142, 5-(methoxycarbonyl)-2,3,4,9-tetrahydro-1H-beta-carboline-1-carboxylic acid hydrochloride hydrate]	121 µM
COc1ccc2[nH]c3c(c2c1)CCN(C(=O)OCc1ccccc1)C3C(=O)NCC(=O)OCc1ccccc1 (stereo not drawn) [Example 218, 2-[(benzyloxy)carbonyl]-6-methoxy-N-[2-(benzyloxy)-2-oxo]ethyl-2,3,4,9-tetrahydro-1H-beta-carboline-1-carboxamide]	> 200 µM
CCOc1cc([N+](=O)[O-])c2[nH]c3c(c2c1)CCNC3=O [Example 255, 6-ethoxy-8-nitro-2,3,4,9-tetrahydro-1H-beta-carbolin-1-one]	> 200 µM
COc1ccc2[nH]c3c(c2c1)CC(CN(C)C)NC3C(=O)O (stereo not drawn) [Example 187, 3-[(dimethylamino)methyl]-6-methoxy-2,3,4,9-tetrahydro-1H-beta-carboline-1-carboxylic acid trifluoroacetate]	> 200 µM
COC(=O)CC1CC2(C(=O)OC)c3[nH]c4ccccc4c3CCN2C1=O (stereo not drawn) [Example 213, 1h-Indolizino[8,7-B]Indole-2-Acetic Acid, 2,3,5,6,11,11b-(Methoxycarbonyl)-3-Oxo-, Methyl Ester]	> 200 µM
COC(=O)[C@@H]1Cc2c([nH]c3ccccc23)C(C)(C(=O)O)N1 (mixture of isomers) [Example 228, 3-(methoxycarbonyl)-1-methyl-2,3,4,9-tetrahydro-1H-beta-carboline-1-carboxylic acid]	> 200 µM
